# Reference: patent US8609173B2, “Compositions comprising sweetness enhancers and methods of making them” (Senomyx Inc., priority 2008, dated 2013)
# Assays:
# [1] = system: External panelists; test: Line scale (15-point sucrose equivalence) sensory test, Example 5, sucrose or LSB, pH 7.1; format: in vivo, Human
# Protocol: (§1) Several types of sensory tests were used to determine the efficacy of 3-(4-amino-2,2-dioxide-1H-benzo[c][1,2,6]thiadiazin-5-yloxy)-2′,2′-dimethyl-N-propylpropanamide 3-(4-amino-2,2-dioxide-1H-benzo[c][1,2,6]thiadiazin-5-yloxy)-2′,2′-dimethyl-N-propylpropanamide in enhancing the sweetness of sucrose. Two types of tests were conducted: • 1) Sensory scaling tests were performed using a 15-point percent sucrose equivalence scale for sweetness in order to evaluate sweetness enhancement 3-(4-amino-2,2-dioxide-1H-benzo[c][1,2,6]thiadiazin-5-yloxy)-2′,2′-dimethyl-N-propylpropanamide 3-(4-amino-2,2-dioxide-1H-benzo[c][1,2,6]thiadiazin-5-yloxy)-2′,2′-dimethyl-N-propylpropanamide in sucrose or in fructose. • 2) Paired comparison tests (2-alternative forced choice difference tests) were used to determine sweetness equivalence for solutions of sucrose vs. 3-(4-amino-2,2-dioxide-1H-benzo[c][1,2,6]thiadiazin-5-yloxy)-2′,2′-dimethyl-N-propylpropanamide 3-(4-amino-2,2-dioxide-1H-benzo[c][1,2,6]thiadiazin-5-yloxy)-2′,2′-dimethyl-N-propylpropanamide or buffer vs. 3-(4-amino-2,2-dioxide-1H-benzo[c][1,2,6]thiadiazin-5-yloxy)-2′,2′-dimethyl-N-propylpropanamide 3-(4-amino-2,2-dioxide-1H-benzo[c][1,2,6]thiadiazin-5-yloxy)-2′,2′-dimethyl-N-propylpropanamide. Stimuli:
# Tests were performed with sucrose or fructose. The sweetener was evaluated with and/or without 3-(4-amino-2,2-dioxide-1H-benzo[c][1,2,6]thiadiazin-5-yloxy)-2′,2′-dimethyl-N-propylpropanamide 3-(4-amino-2,2-dioxide-1H-benzo[c][1,2,6]thiadiazin-5-yloxy)-2′,2′-dimethyl-N-propylpropanamide at the appropriate concentration(s).
# 3-(4-amino-2,2-dioxide-1H-benzo[c][1,2,6]thiadiazin-5-yloxy)-2′,2′-dimethyl-N-propylpropanamide was prepared as a concentrated stock solution in ethanol to ensure dissolution of the 3-(4-amino-2,2-dioxide-1H-benzo[c][1,2,6]thiadiazin-5-yloxy)-2′,2′-dimethyl-N-propylpropanamide. Therefore, all taste solutions contained ethanol in the final solution. Samples without 3-(4-amino-2,2-dioxide-1H-benzo[c][1,2,6]thiadiazin-5-yloxy)-2′,2′-dimethyl-N-propylpropanamide also contained an equivalent concentration of ethanol. For samples involving 3-(4-amino-2,2-dioxide-1H-benzo[c][1,2,6]thiadiazin-5-yloxy)-2′,2′-dimethyl-N-propylpropanamide at 5-10 ppm (up to 28 μM), the final concentration of ethanol was 0.2%; 30-40 μM, 0.4% ethanol; 50 μM, 0.5% ethanol; and 100 μM, 1% ethanol.
# Taste samples were also prepared in low sodium phosphate buffer (pH 7.1; “LSB”) lacking sucrose to evaluate the taste of 3-(4-amino-2,2-dioxide-1H-benzo[c][1,2,6]thiadiazin-5-yloxy)-2′,2′-dimethyl-N-propylpropanamide alone. Low sodium phosphate buffer consists of 0.3 mM KCl, 0.5 mM Na2HPO4, and 0.175 mM KH2PO4.
# In scaling test situations, the samples were rated on a 15-point scale for sweetness, ranging from 0=0% sucrose to 15=15% sucrose. To evaluate attributes other than sweetness, references are used for training and are prepared according to the table below. Note that each reference was given a score of 5 on the 15-point scale.
# External panelists were used for the tests. The exact number of panelists is reported with test results. Subjects were instructed not to eat or drink anything (except water) for at least 1 hour prior to the test.
# Panelists rinsed their mouths with water prior to starting any test. Samples were presented to panelists in a randomized, counterbalanced order. Panelists rinsed with water and had up to a 1 minute delay to clear the mouth of any tastes after each evaluation. Two replicates of each test were performed, unless otherwise noted.
# In scaling tests, panelists rate samples monadically for the attributes listed above (see Stimuli). In paired comparison tests, panelists taste pairs of solutions and indicate which sample is perceived to be sweeter.
# Attributes of interest are reported for each scaling taste test.
# Panelists rinsed their mouths with water prior to starting any test. Samples were presented to panelists in a randomized, counterbalanced order. […]
# [2] = system: Panelists; test: Paired comparison taste test, Example 7, sucrose or fructose solutions; format: in vivo, Human; settings: 1% Sucrose chosen, vs 28 μM (9.9 ppm) compound; n = 32
# Protocol: as §1
# Panelists evaluated two solutions in a paired comparison taste test procedure. They were instructed to select the sweeter of the two samples. They were also asked to comment on how difficult it was to tell the difference in sweetness between both samples and if any off tastes were perceived.
# Panelists evaluated two solutions in a paired comparison taste test procedure and were instructed to select the sweeter of the two samples.
smiles,measurement,setting,value
"OC[C@H]1O[C@@](CO)(O[C@H]2O[C@H](CO)[C@@H](O)[C@H](O)[C@H]2O)[C@@H](O)[C@@H]1O [Sucrose, sucrose]",Average Sweetness,"[1]; 1% Sucrose, Table 25, n = 30",1.2
same,Average Bitterness,"[1]; 1% Sucrose, Table 26, n = 30",0.4
same,Average Sweetness,"[1]; 2% Sucrose, Table 20, n = 30",2.3
same,Average Bitterness,"[1]; 2% Sucrose, Table 21, n = 30",0.3
same,Average Sweetness,"[1]; 2% Sucrose, Table 22, n = 14",2.3
same,Average Sweetness,"[1]; 2% Sucrose, Table 25, n = 30",2.2
same,Average Bitterness,"[1]; 2% Sucrose, Table 26, n = 30",0.3
same,Average Sweetness,"[1]; 2% Sucrose, Table 27, n = 28",2.0
same,Average Bitterness,"[1]; 2% Sucrose, Table 28, n = 28",0.1
same,Average Sweetness,"[1]; 4% Sucrose, Table 20, n = 30",4.2
same,Average Bitterness,"[1]; 4% Sucrose, Table 21, n = 30",0.2
same,Average Sweetness,"[1]; 4% Sucrose, Table 22, n = 14",4.3
same,Average Sweetness,"[1]; 4% Sucrose, Table 25, n = 30",4.4
same,Average Bitterness,"[1]; 4% Sucrose, Table 26, n = 30",0.3
same,Average Sweetness,"[1]; 4% Sucrose, Table 27, n = 28",4.2
same,Average Bitterness,"[1]; 4% Sucrose, Table 28, n = 28",0.1
same,Average Sweetness,"[1]; 6% Sucrose, Table 16, n = 15",6.3
same,Average Bitterness,"[1]; 6% Sucrose, Table 17, n = 15",0.3
same,Average Sweetness,"[1]; 6% Sucrose, Table 18, n = 24",6.2
same,Average Bitterness,"[1]; 6% Sucrose, Table 19, n = 24",0.2
same,Average Sweetness,"[1]; 6% Sucrose, Table 20, n = 30",5.8
same,Average Bitterness,"[1]; 6% Sucrose, Table 21, n = 30",0.2
same,Average Sweetness,"[1]; 6% Sucrose, Table 22, n = 14",5.7
same,Average Sweetness,"[1]; 6% Sucrose, Table 23, n = 30",6.7
same,Average Bitterness,"[1]; 6% Sucrose, Table 24, n = 30",0.4
same,Average Sweetness,"[1]; 6% Sucrose, Table 25, n = 30",6.4
same,Average Bitterness,"[1]; 6% Sucrose, Table 26, n = 30",0.6
same,Average Sweetness,"[1]; 6% Sucrose, Table 27, n = 28",6.1
same,Average Bitterness,"[1]; 6% Sucrose, Table 28, n = 28",0.1
same,Average Sweetness,"[1]; 8% Sucrose, Table 16, n = 15",7.7
same,Average Bitterness,"[1]; 8% Sucrose, Table 17, n = 15",0.1
same,Average Sweetness,"[1]; 8% Sucrose, Table 18, n = 24",8.3
same,Average Bitterness,"[1]; 8% Sucrose, Table 19, n = 24",0.1
same,Average Sweetness,"[1]; 8% Sucrose, Table 23, n = 30",8.3
same,Average Bitterness,"[1]; 8% Sucrose, Table 24, n = 30",0.4
same,Average Sweetness,"[1]; 8% Sucrose, Table 25, n = 30",8.7
same,Average Bitterness,"[1]; 8% Sucrose, Table 26, n = 30",0.3
same,Average Sweetness,"[1]; 8% Sucrose, Table 27, n = 28",8.4
same,Average Bitterness,"[1]; 8% Sucrose, Table 28, n = 28",0.2
same,Average Sweetness,"[1]; 9% Sucrose, Table 16, n = 15",9.0
same,Average Bitterness,"[1]; 9% Sucrose, Table 17, n = 15",0.1
same,Average Sweetness,"[1]; 9% Sucrose, Table 18, n = 24",9.3
same,Average Bitterness,"[1]; 9% Sucrose, Table 19, n = 24",0.1
same,Average Sweetness,"[1]; 10% Sucrose, Table 16, n = 15",9.2
same,Average Bitterness,"[1]; 10% Sucrose, Table 17, n = 15",0.2
same,Average Sweetness,"[1]; 10% Sucrose, Table 18, n = 24",9.8
same,Average Bitterness,"[1]; 10% Sucrose, Table 19, n = 24",0.1
same,Average Sweetness,"[1]; 10% Sucrose, Table 23, n = 30",10.3
same,Average Bitterness,"[1]; 10% Sucrose, Table 24, n = 30",0.2
same,Average Sweetness,"[1]; 10% Sucrose, Table 25, n = 30",10.5
same,Average Bitterness,"[1]; 10% Sucrose, Table 26, n = 30",0.3
same,Average Sweetness,"[1]; 10% Sucrose, Table 27, n = 28",9.6
same,Average Bitterness,"[1]; 10% Sucrose, Table 28, n = 28",0.1
same,Average Sweetness,"[1]; 12% Sucrose, Table 18, n = 24",11.1
same,Average Bitterness,"[1]; 12% Sucrose, Table 19, n = 24",0.0
same,Average Sweetness,"[1]; 12% Sucrose, Table 23, n = 30",11.2
same,Average Bitterness,"[1]; 12% Sucrose, Table 24, n = 30",0.3
same,"Sample selected as more sweet by panelists, Total",[2],28
